The values that follow are results of earlier work, collected in patent US11224631B2, “Ready-to-use Carfilzomib compositions” (Orbicular Pharmaceutical Technologies Pvt. Ltd., priority 2017, dated 2022).

`CC(C)C[C@H](NC(=O)[C@H](CCc1ccccc1)NC(=O)CN1CCOCC1)C(=O)N[C@@H](Cc1ccccc1)C(=O)N[C@@H](CC(C)C)C(=O)[C@@]1(C)CO1` [Carfilzomib]: the Aqueous solubility result was “low aqueous solubility”.
